Results: patent publication US11208671B2, “Recombinant cell and method of producing itaconic acid” (City University of Hong Kong, priority 2019, dated 2021)

Test system: Methylorubrum extorquens AM1
Experiment: Tolerance of the strain to the inhibitory effect of itaconic acid
Assay type: cell-based
Conditions: itaconic acid 10 mM

In the case of `C=C(CC(=O)O)C(=O)O` [itaconic acid], the “Tolerance to inhibitory effect of itaconic acid” value is reported as “highly tolerant”.
